Experimental data as given in the supplement of paper PMC10627819.

Key:
S. aureus Newman = test: Bliss interaction score (quartile over a dose matrix) (fitness difference); higher = more antagonism (negative = synergy)
How it was run: (§1)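 Quartiles summarise the Bliss score over technical, biological and donor/recipient replicates, where the score is observed minus expected fitness under a product model. Expected fitness uses single-drug values inferred from combination data. Fitness is OD595 at entry into stationary phase over the plate's robust no-drug mean, capped at 1.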

S. pneumoniae D39V [1] = test: as above
How it was run: as §1

S. aureus DSM 20231 = test: as above
How it was run: as §1

B. subtilis 168 [2] = test: as above
How it was run: as §1

S. pneumoniae D39V [3] = test: fitness (endpoint OD595 vs no drug) (fraction); higher = more growth
How it was run: (§2)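 Growth medium was TSB, LB Lennox or CY, and plates were kept at 37 °C. Inoculation was at OD595 0.01 in 384-well plates, at 30 µl per well or 55 µl for S. pneumoniae. OD595 was monitored every 30 min for 14 h and background-subtracted using the first reading. Fitness is the optical density on entering stationary phase divided by the robust mean of no-drug controls, with values capped at 1.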

B. subtilis 168 [4] = test: as above
How it was run: as §2
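For Bliss interaction score (quartile over a dose matrix) in this document: first quartile when negative (synergy) and third quartile when positive (antagonism).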

CCC[C@@H]1C[C@@H](C(=O)N[C@@H]([C@H]2O[C@H](SC)[C@H](O)[C@@H](O)[C@H]2O)[C@H](C)Cl)N(C)C1 [Clindamycin] + CCC(C)C1C(=O)NC(=C)C(=O)NC(C(=O)NC(CSCC(C(=O)N1)NC(=O)/C(=C/C)/NC(=O)C(C(C)CC)N)C(=O)NC2C(SCC(NC(=O)CNC(=O)C3CCCN3C2=O)C(=O)NC(CCCCN)C(=O)NC4C(SCC(NC(=O)CNC(=O)C(NC(=O)C(NC(=O)C(NC(=O)CNC4=O)C)CC(C)C)CCSC)C(=O)NC(CC(=O)N)C(=O)NC(CCSC)C(=O)NC(CCCCN)C(=O)NC5C(SCC6C(=O)NC(C(=O)NC(CSC(C(C(=O)N6)NC(=O)C(NC5=O)C)C)C(=O)NC(CO)C(=O)NC(C(C)CC)C(=O)NC(CC7=CN=CN7)C(=O)NC(C(C)C)C(=O)NC(=C)C(=O)NC(CCCCN)C(=O)O)CC8=CN=CN8)C)C)C)CC(C)C [Nisin]
main component drawn
Details | Bliss interaction score
B. subtilis 168 [2] | 0.0605
S. aureus DSM 20231 | 0.0292
S. aureus Newman | 0.0857
S. pneumoniae D39V [1] | -0.0351

S. pneumoniae D39V [3], main component drawn
Details | fitness
first compound 0.0125 µg/mL, partner 1.6 µg/mL | 0.0319
first compound 0.0125 µg/mL, partner 3.2 µg/mL | 0.0224
first compound 0.0125 µg/mL, partner 6.4 µg/mL | 0.0205
first compound 0.015 µg/mL, partner 0.4275 µg/mL | 0.923
first compound 0.015 µg/mL, partner 1.71 µg/mL | 0.11
first compound 0.025 µg/mL, partner 1.6 µg/mL | 0.0417
first compound 0.025 µg/mL, partner 3.2 µg/mL | 0.0389
first compound 0.025 µg/mL, partner 6.4 µg/mL | 0.0111
first compound 0.03 µg/mL, partner 0.4275 µg/mL | 0.774
first compound 0.03 µg/mL, partner 1.71 µg/mL | 0.0769
first compound 0.05 µg/mL, partner 1.6 µg/mL | 0.0221
first compound 0.05 µg/mL, partner 3.2 µg/mL | 0.0421
first compound 0.05 µg/mL, partner 6.4 µg/mL | 0.0305
first compound 0.06 µg/mL, partner 0.4275 µg/mL | 0.645
first compound 0.06 µg/mL, partner 0.855 µg/mL | 0.252
first compound 0.06 µg/mL, partner 1.71 µg/mL | 0.0778

fitness, B. subtilis 168 [4], one replicate, main component drawn
Details | first compound 0.0039 µg/mL | first compound 0.0078 µg/mL | first compound 0.0156 µg/mL | first compound 0.0625 µg/mL | first compound 0.125 µg/mL | first compound 0.25 µg/mL
partner 0.5 µg/mL | 0.985 | 0.875 | 0.858 | 0.559 | 0.461 | 0.402
partner 1 µg/mL | 0.936 | 0.847 | 0.834 | 0.565 | 0.389 | 0.371
partner 1.25 µg/mL | – | – | – | 0.647 | 0.47 | 0.386
partner 1.6 µg/mL | – | – | – | 0.455 | 0.196 | 0.0539
partner 2 µg/mL | 0.855 | 0.771 | 0.742 | 0.261 | 0.25 | 0.0613
partner 2.5 µg/mL | – | – | – | 0.564 | 0.423 | 0.275
partner 3.2 µg/mL | – | – | – | 0.0252 | 0.0383 | 0.0454
partner 4 µg/mL | – | – | – | 0.0334 | 0.0299 | 0.0361
partner 5 µg/mL | – | – | – | 0.171 | 0.0548 | 0.0507
partner 6.4 µg/mL | – | – | – | 0.0392 | 0.0456 | 0.0461
partner 8 µg/mL | – | – | – | 0.0341 | 0.0157 | 0.0269
partner 16 µg/mL | – | – | – | 0.0049 | 0.0089 | 0.0163

CCC[C@@H]1C[C@@H](C(=O)N[C@@H]([C@H]2O[C@H](SC)[C@H](O)[C@@H](O)[C@H]2O)[C@H](C)Cl)N(C)C1 [Clindamycin] + CN(C)C(=O)C(CCN1CCC(O)(c2ccc(Cl)cc2)CC1)(c1ccccc1)c1ccccc1 [Loperamide]
Details | Bliss interaction score
B. subtilis 168 [2] | 0.149
S. aureus DSM 20231 | 0.0957
S. aureus Newman | -0.0895
S. pneumoniae D39V [1] | 0.2

Details | fitness
B. subtilis 168 [4], first compound 0.0625 µg/mL, partner 25 µg/mL | 0.577
B. subtilis 168 [4], first compound 0.0625 µg/mL, partner 50 µg/mL | 0.0289
B. subtilis 168 [4], first compound 0.0625 µg/mL, partner 100 µg/mL | 0.0293
B. subtilis 168 [4], first compound 0.125 µg/mL, partner 25 µg/mL | 0.418
B. subtilis 168 [4], first compound 0.125 µg/mL, partner 50 µg/mL | 0.0399
B. subtilis 168 [4], first compound 0.125 µg/mL, partner 100 µg/mL | 0.0277
B. subtilis 168 [4], first compound 0.25 µg/mL, partner 25 µg/mL | 0.254
B. subtilis 168 [4], first compound 0.25 µg/mL, partner 50 µg/mL | 0.0473
B. subtilis 168 [4], first compound 0.25 µg/mL, partner 100 µg/mL | 0.0404
S. pneumoniae D39V [3], first compound 0.0125 µg/mL, partner 20 µg/mL | 0.82
S. pneumoniae D39V [3], first compound 0.0125 µg/mL, partner 40 µg/mL | 0.859
S. pneumoniae D39V [3], first compound 0.0125 µg/mL, partner 80 µg/mL | 0.858
S. pneumoniae D39V [3], first compound 0.015 µg/mL, partner 17.14 µg/mL | 0.938
S. pneumoniae D39V [3], first compound 0.015 µg/mL, partner 34.28 µg/mL | 0.946
S. pneumoniae D39V [3], first compound 0.025 µg/mL, partner 20 µg/mL | 0.614
S. pneumoniae D39V [3], first compound 0.025 µg/mL, partner 40 µg/mL | 0.62
S. pneumoniae D39V [3], first compound 0.025 µg/mL, partner 80 µg/mL | 0.597
S. pneumoniae D39V [3], first compound 0.03 µg/mL, partner 17.14 µg/mL | 0.778
S. pneumoniae D39V [3], first compound 0.03 µg/mL, partner 34.28 µg/mL | 0.769
S. pneumoniae D39V [3], first compound 0.05 µg/mL, partner 20 µg/mL | 0.316
S. pneumoniae D39V [3], first compound 0.05 µg/mL, partner 40 µg/mL | 0.329
S. pneumoniae D39V [3], first compound 0.05 µg/mL, partner 80 µg/mL | 0.285
S. pneumoniae D39V [3], first compound 0.06 µg/mL, partner 17.14 µg/mL | 0.688
S. pneumoniae D39V [3], first compound 0.06 µg/mL, partner 34.28 µg/mL | 0.639

fitness, one replicate
Details | first compound 0.0039 µg/mL | first compound 0.0078 µg/mL | first compound 0.015 µg/mL | first compound 0.0156 µg/mL | first compound 0.03 µg/mL | first compound 0.06 µg/mL
B. subtilis 168 [4], partner 25 µg/mL | 0.924 | 0.814 | – | 0.793 | – | –
B. subtilis 168 [4], partner 50 µg/mL | 0.862 | 0.754 | – | 0.595 | – | –
B. subtilis 168 [4], partner 100 µg/mL | 0.53 | 0.385 | – | 0.259 | – | –
S. pneumoniae D39V [3], partner 68.57 µg/mL | – | – | 0.982 | – | 0.896 | 0.725

CCC[C@@H]1C[C@@H](C(=O)N[C@@H]([C@H]2O[C@H](SC)[C@H](O)[C@@H](O)[C@H]2O)[C@H](C)Cl)N(C)C1 [Clindamycin] + CO[C@@H]1[C@@H](OC(N)=O)[C@@H](O)[C@H](Oc2ccc3c(O)c(NC(=O)c4ccc(O)c(CC=C(C)C)c4)c(=O)oc3c2C)OC1(C)C [Novobiocin]
Details | Bliss interaction score
B. subtilis 168 [2] | -0.063
S. aureus DSM 20231 | 0.0437
S. aureus Newman | 0.16
S. pneumoniae D39V [1] | -0.102

fitness, B. subtilis 168 [4], one replicate
Details | first compound 0.0039 µg/mL | first compound 0.0078 µg/mL | first compound 0.0156 µg/mL | first compound 0.0625 µg/mL | first compound 0.125 µg/mL | first compound 0.25 µg/mL
partner 0.05 µg/mL | ≥ 1 | 0.895 | 0.867 | – | – | –
partner 0.1 µg/mL | ≥ 1 | 0.889 | 0.843 | – | – | –
partner 0.125 µg/mL | – | – | – | 0.526 | 0.496 | 0.348
partner 0.2 µg/mL | ≥ 1 | 0.903 | 0.818 | – | – | –
partner 0.25 µg/mL | – | – | – | 0.411 | 0.39 | 0.318
partner 0.5 µg/mL | – | – | – | 0.353 | 0.276 | 0.0724

fitness, B. subtilis 168 [4]
Details | first compound 0.0625 µg/mL | first compound 0.125 µg/mL | first compound 0.25 µg/mL
partner 0.0125 µg/mL | 0.558 | 0.365 | 0.346
partner 0.025 µg/mL | 0.563 | 0.334 | 0.326
partner 0.05 µg/mL | 0.581 | 0.369 | 0.325
